According to the NIST ThermoML archive (doi:10.1016/j.jct.2015.08.014):
Numbers after ± are expanded uncertainties.

Experiment: xn = mol fraction of the nth substance listed
Conditions: 323.15 K, 100 kPa, Liquid, Alternating current cell with electrodes

CCCC[N+]1(C)CCCC1.N#CN=C=[N-] [1-butyl-1-methylpyrrolidinium dicyanamide] + O=C1CCCO1
electrical conductivity (Frequency=0.001 MHz, x1 = 0.0987): 3.06 ± 0.039 S/m
electrical conductivity (Frequency=0.001 MHz, x1 = 0.1449): 3.56 ± 0.038 S/m
electrical conductivity (Frequency=0.001 MHz, x1 = 0.1859): 3.83 ± 0.039 S/m
electrical conductivity (Frequency=0.001 MHz, x1 = 0.2493): 3.89 ± 0.039 S/m
electrical conductivity (Frequency=0.001 MHz, x1 = 0.3029): 3.86 ± 0.039 S/m
electrical conductivity (Frequency=0.001 MHz, x1 = 0.3845): 3.732 ± 0.037 S/m
electrical conductivity (Frequency=0.001 MHz, x1 = 0.4985): 3.46 ± 0.035 S/m
electrical conductivity (Frequency=0.001 MHz, x1 = 0.6954): 2.99 ± 0.03 S/m
electrical conductivity (Frequency=0.001 MHz, x1 = 0.9013): 2.626 ± 0.026 S/m
electrical conductivity (Frequency=0.001 MHz, x1 = 1): 2.526 ± 0.025 S/m
electrical conductivity (Frequency=0.0015 MHz, x1 = 0.0463): 2 ± 0.037 S/m
electrical conductivity (Frequency=0.0015 MHz, x1 = 0.0987): 3.07 ± 0.039 S/m
electrical conductivity (Frequency=0.0015 MHz, x1 = 0.1449): 3.56 ± 0.038 S/m
electrical conductivity (Frequency=0.0015 MHz, x1 = 0.1859): 3.84 ± 0.039 S/m
electrical conductivity (Frequency=0.0015 MHz, x1 = 0.2493): 3.89 ± 0.039 S/m
electrical conductivity (Frequency=0.0015 MHz, x1 = 0.3029): 3.87 ± 0.039 S/m
electrical conductivity (Frequency=0.0015 MHz, x1 = 0.3845): 3.73 ± 0.038 S/m
electrical conductivity (Frequency=0.0015 MHz, x1 = 0.4985): 3.46 ± 0.035 S/m
electrical conductivity (Frequency=0.0015 MHz, x1 = 0.6954): 2.99 ± 0.03 S/m
electrical conductivity (Frequency=0.0015 MHz, x1 = 0.9013): 2.628 ± 0.026 S/m
electrical conductivity (Frequency=0.0015 MHz, x1 = 1): 2.527 ± 0.025 S/m
electrical conductivity (Frequency=0.002 MHz, x1 = 0.0463): 2 ± 0.037 S/m
electrical conductivity (Frequency=0.002 MHz, x1 = 0.0987): 3.07 ± 0.039 S/m
electrical conductivity (Frequency=0.002 MHz, x1 = 0.1449): 3.56 ± 0.038 S/m
electrical conductivity (Frequency=0.002 MHz, x1 = 0.1859): 3.84 ± 0.039 S/m
electrical conductivity (Frequency=0.002 MHz, x1 = 0.2493): 3.89 ± 0.039 S/m
electrical conductivity (Frequency=0.002 MHz, x1 = 0.3029): 3.87 ± 0.039 S/m
electrical conductivity (Frequency=0.002 MHz, x1 = 0.3845): 3.74 ± 0.038 S/m
electrical conductivity (Frequency=0.002 MHz, x1 = 0.4985): 3.46 ± 0.035 S/m
electrical conductivity (Frequency=0.002 MHz, x1 = 0.6954): 2.99 ± 0.03 S/m
electrical conductivity (Frequency=0.002 MHz, x1 = 0.9013): 2.63 ± 0.026 S/m
electrical conductivity (Frequency=0.002 MHz, x1 = 1): 2.528 ± 0.025 S/m
electrical conductivity (Frequency=0.0025 MHz, x1 = 0.0463): 2.01 ± 0.037 S/m
electrical conductivity (Frequency=0.0025 MHz, x1 = 0.0987): 3.07 ± 0.039 S/m
electrical conductivity (Frequency=0.0025 MHz, x1 = 0.1449): 3.56 ± 0.038 S/m
electrical conductivity (Frequency=0.0025 MHz, x1 = 0.1859): 3.85 ± 0.039 S/m
electrical conductivity (Frequency=0.0025 MHz, x1 = 0.2493): 3.89 ± 0.039 S/m
electrical conductivity (Frequency=0.0025 MHz, x1 = 0.3029): 3.87 ± 0.039 S/m
electrical conductivity (Frequency=0.0025 MHz, x1 = 0.3845): 3.74 ± 0.038 S/m
electrical conductivity (Frequency=0.0025 MHz, x1 = 0.4985): 3.46 ± 0.035 S/m
electrical conductivity (Frequency=0.0025 MHz, x1 = 0.6954): 2.99 ± 0.03 S/m
electrical conductivity (Frequency=0.0025 MHz, x1 = 0.9013): 2.63 ± 0.026 S/m
electrical conductivity (Frequency=0.0025 MHz, x1 = 1): 2.528 ± 0.025 S/m
electrical conductivity (Frequency=0.003 MHz, x1 = 0.0463): 2.01 ± 0.037 S/m
electrical conductivity (Frequency=0.003 MHz, x1 = 0.0987): 3.08 ± 0.039 S/m
electrical conductivity (Frequency=0.003 MHz, x1 = 0.1449): 3.56 ± 0.038 S/m
electrical conductivity (Frequency=0.003 MHz, x1 = 0.1859): 3.85 ± 0.039 S/m
electrical conductivity (Frequency=0.003 MHz, x1 = 0.2493): 3.89 ± 0.039 S/m
electrical conductivity (Frequency=0.003 MHz, x1 = 0.3029): 3.87 ± 0.039 S/m
electrical conductivity (Frequency=0.003 MHz, x1 = 0.3845): 3.74 ± 0.038 S/m
electrical conductivity (Frequency=0.003 MHz, x1 = 0.4985): 3.46 ± 0.035 S/m
electrical conductivity (Frequency=0.003 MHz, x1 = 0.6954): 2.99 ± 0.03 S/m
electrical conductivity (Frequency=0.003 MHz, x1 = 0.9013): 2.631 ± 0.026 S/m
electrical conductivity (Frequency=0.003 MHz, x1 = 1): 2.528 ± 0.025 S/m
electrical conductivity (Frequency=0.00347222 MHz, x1 = 0.0463): 2.01 ± 0.037 S/m
electrical conductivity (Frequency=0.00347222 MHz, x1 = 0.0987): 3.08 ± 0.039 S/m
electrical conductivity (Frequency=0.00347222 MHz, x1 = 0.1449): 3.57 ± 0.038 S/m
electrical conductivity (Frequency=0.00347222 MHz, x1 = 0.1859): 3.85 ± 0.039 S/m
electrical conductivity (Frequency=0.00347222 MHz, x1 = 0.2493): 3.89 ± 0.039 S/m
electrical conductivity (Frequency=0.00347222 MHz, x1 = 0.3029): 3.87 ± 0.039 S/m
electrical conductivity (Frequency=0.00347222 MHz, x1 = 0.3845): 3.74 ± 0.038 S/m
electrical conductivity (Frequency=0.00347222 MHz, x1 = 0.4985): 3.46 ± 0.035 S/m
electrical conductivity (Frequency=0.00347222 MHz, x1 = 0.6954): 2.99 ± 0.03 S/m
electrical conductivity (Frequency=0.00347222 MHz, x1 = 0.9013): 2.632 ± 0.026 S/m
electrical conductivity (Frequency=0.00347222 MHz, x1 = 1): 2.528 ± 0.025 S/m
electrical conductivity (Frequency=0.004 MHz, x1 = 0.0463): 2.01 ± 0.037 S/m
electrical conductivity (Frequency=0.004 MHz, x1 = 0.0987): 3.08 ± 0.039 S/m
electrical conductivity (Frequency=0.004 MHz, x1 = 0.1449): 3.57 ± 0.038 S/m
electrical conductivity (Frequency=0.004 MHz, x1 = 0.1859): 3.85 ± 0.039 S/m
electrical conductivity (Frequency=0.004 MHz, x1 = 0.2493): 3.89 ± 0.039 S/m
electrical conductivity (Frequency=0.004 MHz, x1 = 0.3029): 3.87 ± 0.039 S/m
electrical conductivity (Frequency=0.004 MHz, x1 = 0.3845): 3.74 ± 0.038 S/m
electrical conductivity (Frequency=0.004 MHz, x1 = 0.4985): 3.46 ± 0.035 S/m
electrical conductivity (Frequency=0.004 MHz, x1 = 0.6954): 2.99 ± 0.03 S/m
electrical conductivity (Frequency=0.004 MHz, x1 = 0.9013): 2.632 ± 0.026 S/m
electrical conductivity (Frequency=0.004 MHz, x1 = 1): 2.529 ± 0.025 S/m
electrical conductivity (Frequency=0.00446429 MHz, x1 = 0.0463): 2.01 ± 0.037 S/m
electrical conductivity (Frequency=0.00446429 MHz, x1 = 0.0987): 3.08 ± 0.039 S/m
electrical conductivity (Frequency=0.00446429 MHz, x1 = 0.1449): 3.57 ± 0.038 S/m
electrical conductivity (Frequency=0.00446429 MHz, x1 = 0.1859): 3.85 ± 0.039 S/m
electrical conductivity (Frequency=0.00446429 MHz, x1 = 0.2493): 3.89 ± 0.039 S/m
electrical conductivity (Frequency=0.00446429 MHz, x1 = 0.3029): 3.87 ± 0.039 S/m
electrical conductivity (Frequency=0.00446429 MHz, x1 = 0.3845): 3.74 ± 0.038 S/m
electrical conductivity (Frequency=0.00446429 MHz, x1 = 0.4985): 3.46 ± 0.035 S/m
electrical conductivity (Frequency=0.00446429 MHz, x1 = 0.6954): 2.99 ± 0.03 S/m
electrical conductivity (Frequency=0.00446429 MHz, x1 = 0.9013): 2.632 ± 0.026 S/m
electrical conductivity (Frequency=0.00446429 MHz, x1 = 1): 2.529 ± 0.025 S/m
electrical conductivity (Frequency=0.005 MHz, x1 = 0.0463): 2.01 ± 0.037 S/m
electrical conductivity (Frequency=0.005 MHz, x1 = 0.0987): 3.08 ± 0.039 S/m
electrical conductivity (Frequency=0.005 MHz, x1 = 0.1449): 3.57 ± 0.038 S/m
electrical conductivity (Frequency=0.005 MHz, x1 = 0.1859): 3.85 ± 0.039 S/m
electrical conductivity (Frequency=0.005 MHz, x1 = 0.2493): 3.89 ± 0.039 S/m
electrical conductivity (Frequency=0.005 MHz, x1 = 0.3029): 3.87 ± 0.039 S/m
electrical conductivity (Frequency=0.005 MHz, x1 = 0.3845): 3.74 ± 0.038 S/m
electrical conductivity (Frequency=0.005 MHz, x1 = 0.4985): 3.46 ± 0.035 S/m
electrical conductivity (Frequency=0.005 MHz, x1 = 0.6954): 2.99 ± 0.03 S/m
electrical conductivity (Frequency=0.005 MHz, x1 = 0.9013): 2.633 ± 0.026 S/m
electrical conductivity (Frequency=0.005 MHz, x1 = 1): 2.529 ± 0.025 S/m
electrical conductivity (Frequency=0.005454 MHz, x1 = 0.0463): 2.01 ± 0.037 S/m
electrical conductivity (Frequency=0.005454 MHz, x1 = 0.0987): 3.08 ± 0.039 S/m
electrical conductivity (Frequency=0.005454 MHz, x1 = 0.1449): 3.57 ± 0.038 S/m
electrical conductivity (Frequency=0.005454 MHz, x1 = 0.1859): 3.85 ± 0.039 S/m
electrical conductivity (Frequency=0.005454 MHz, x1 = 0.2493): 3.89 ± 0.039 S/m
electrical conductivity (Frequency=0.005454 MHz, x1 = 0.3029): 3.88 ± 0.039 S/m
electrical conductivity (Frequency=0.005454 MHz, x1 = 0.3845): 3.74 ± 0.038 S/m
electrical conductivity (Frequency=0.005454 MHz, x1 = 0.4985): 3.46 ± 0.035 S/m
electrical conductivity (Frequency=0.005454 MHz, x1 = 0.6954): 2.99 ± 0.03 S/m
